In patent US10597388B2, “Pyridazinone herbicides” (FMC CORPORATION, priority 2014, dated 2020):

Legend:
Type in all cases: in vivo
[1] = system: blackgrass (Alopecurus myosuroides); experiment: Test A greenhouse herbicide test, postemergence
Outline: (§1)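 Scores are visual injury ratings from 0 (no effect) to 100 (complete control) versus untreated plants, taken roughly 10 d after treatment in the greenhouse. Treatment was postemergence, on one- to two-leaf plants 2–10 cm high growing in a loam soil/sand mix.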

[2] = system: galium (catchweed bedstraw, Galium aparine); experiment: Test A greenhouse herbicide test, postemergence
Outline: as §1

[3] = system: barnyardgrass (Echinochloa crus-galli); experiment: Test A greenhouse herbicide test, pre- and postemergence
Outline: (§2)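 Visual injury ratings, 0 (no effect) to 100 (complete control), versus untreated plants after roughly 10 d in a greenhouse. Compounds, formulated in a surfactant-containing non-phytotoxic solvent, were sprayed on loam–sand soil after sowing (pre) or on one- to two-leaf plants 2–10 cm tall (post).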

[4] = system: pigweed (Amaranthus retroflexus); experiment: as above
Outline: as §2

[5] = system: ragweed (common ragweed, Ambrosia elatior); experiment: as above
Outline: as §2

[6] = system: ryegrass, Italian (Italian ryegrass, Lolium multiflorum); experiment: as above
Outline: as §2

corn (Zea mays) = experiment: as above; conditions: Postemergence
Outline: as §2

[7] = system: wheat (Triticum aestivum); experiment: as above; conditions: Postemergence
Outline: as §2

[8] = system: foxtail, giant (giant foxtail, Setaria faberii); experiment: as above
Outline: as §2

kochia (Kochia scoparia) = experiment: as above
Outline: as §2

[9] = system: barnyardgrass (Echinochloa crus-galli); experiment: Test B flooded paddy test; conditions: 250 g ai/ha, Flood; visual rating on scale of 0 to 100 where 0 is no effect and 100 is complete control; 13 to 15 d after treatment
Outline: (§3)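 Ratings use a 0-100 visual scale, where 100 is complete control, and compare treated plants with controls after 13 to 15 d of greenhouse growth. Compound went straight into paddy water kept 3 cm over the soil surface, applied to seedlings at the 2-leaf stage.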

rice (Oryza sativa) = experiment: Test B flooded paddy test; conditions: 250 g ai/ha, Flood; visual rating on scale of 0 to 100 where 0 is no effect and 100 is complete control; 13 to 15 d after treatment
Outline: as §3

[10] = system: sedge, umbrella (small-flower umbrella sedge, Cyperus difformis); experiment: Test B flooded paddy test; conditions: 250 g ai/ha, Flood; visual rating on scale of 0 to 100 where 0 is no effect and 100 is complete control; 13 to 15 d after treatment
Outline: as §3

[11] = system: ducksalad (Heteranthera limosa); experiment: Test B flooded paddy test; conditions: 250 g ai/ha, Flood; visual rating on scale of 0 to 100 where 0 is no effect and 100 is complete control; 13 to 15 d after treatment
Outline: as §3

[12] = 125 g ai/ha, 0 to 100 scale where 0 is no effect and 100 is complete control
[13] = 500 g ai/ha, 0 to 100 scale, 0 is no effect, 100 is complete control
[14] = Postemergence, 125 g ai/ha, 0 to 100 scale where 0 is no effect and 100 is complete control
[15] = Postemergence, 500 g ai/ha, 0 to 100 scale, 0 is no effect, 100 is complete control
[16] = Preemergence, 125 g ai/ha, 0 to 100 scale where 0 is no effect and 100 is complete control
[17] = Preemergence, 500 g ai/ha, 0 to 100 scale, 0 no effect, 100 complete control
[18] = 125 g ai/ha, 0 to 100 scale, 0 no effect, 100 complete control
[19] = 500 g ai/ha, visual rating after approx. 10 d, 0 to 100 scale (0 no effect, 100 complete control)
[20] = Postemergence, 125 g ai/ha, 0 to 100 scale, 0 no effect, 100 complete control
[21] = Postemergence, 500 g ai/ha, visual rating after approx. 10 d, 0 to 100 scale (0 no effect, 100 complete control)
[22] = Preemergence, 125 g ai/ha, visual injury rating, 0 to 100 scale (0 no effect, 100 complete control), approx. 10 d
[23] = Preemergence, 500 g ai/ha, 0 to 100 scale where 0 is no effect and 100 is complete control

Cn1ncc(O)c(-c2cccc3ccccc23)c1=O [Compound 49]
80: Galium plant response rating [2, 13]
50: Plant response rating, Galium [2, 12] | Ryegrass, Italian plant response rating [6, 15]
0: Plant response rating, Barnyardgrass [3, 14] | Barnyardgrass plant response rating [3, 16] | Plant response rating, Barnyardgrass [3, 17] | Pigweed plant response rating [4, 16] | Plant response rating, Ragweed [5, 14] | Ragweed plant response rating [5, 16] | Ryegrass, Italian plant response rating [6, 16] | Plant response rating, Corn (corn (Zea mays); [12]) | Corn plant response rating (corn (Zea mays); [13]) | Plant response rating, Wheat [7, 12] | Wheat plant response rating [7, 13] | Plant response rating, Foxtail, Giant [8, 14] | Foxtail, Giant plant response rating [8, 16] | Plant response rating, Kochia (kochia (Kochia scoparia); [14]) | Kochia plant response rating (kochia (Kochia scoparia); [16]) | Plant response rating, Kochia (kochia (Kochia scoparia); [17]) | Plant response rating, Barnyardgrass [9] | Plant response rating, Rice (rice (Oryza sativa)) | Plant response rating, Sedge, Umbrella [10] | Plant response rating, Ducksalad [11]
20: Barnyardgrass plant response rating [3, 15] | Plant response rating, Pigweed [4, 14] | Foxtail, Giant plant response rating [8, 15]
30: Blackgrass plant response rating [1, 13] | Plant response rating, Ryegrass, Italian [6, 14] | Plant response rating, Ryegrass, Italian [6, 17]
40: Pigweed plant response rating [4, 15] | Plant response rating, Pigweed [4, 17]
10: Plant response rating, Blackgrass [1, 12] | Ragweed plant response rating [5, 15] | Plant response rating, Ragweed [5, 17] | Plant response rating, Foxtail, Giant [8, 17] | Kochia plant response rating (kochia (Kochia scoparia); [15])

Cc1nn(Cc2ccccc2)c(=O)c(-c2cccc3ccccc23)c1O [Compound 168]
20: Plant response rating, Blackgrass [1, 18] | Plant response rating, Barnyardgrass [3, 23] | Plant response rating, Corn (corn (Zea mays); [19]) | Plant response rating, Wheat [7, 19] | Plant response rating, Kochia (kochia (Kochia scoparia); [20]) | Plant response rating, Kochia (kochia (Kochia scoparia); [21])
40: Plant response rating, Barnyardgrass [3, 21] | Plant response rating, Pigweed [4, 21] | Plant response rating, Ryegrass, Italian [6, 23] | Plant response rating, Foxtail, Giant [8, 21] | Plant response rating, Foxtail, Giant [8, 23] | Plant response rating, Ducksalad [11]
60: Plant response rating, Ryegrass, Italian [6, 20] | Plant response rating, Ryegrass, Italian [6, 21]
30: Plant response rating, Blackgrass [1, 19] | Plant response rating, Galium [2, 19] | Plant response rating, Foxtail, Giant [8, 20]
0: Plant response rating, Galium [2, 18] | Plant response rating, Barnyardgrass [3, 20] | Plant response rating, Barnyardgrass [3, 22] | Plant response rating, Pigweed [4, 20] | Plant response rating, Pigweed [4, 22] | Plant response rating, Pigweed [4, 23] | Plant response rating, Ragweed [5, 20] | Plant response rating, Ragweed [5, 21] | Plant response rating, Ragweed [5, 22] | Plant response rating, Ragweed [5, 23] | Plant response rating, Ryegrass, Italian [6, 22] | Plant response rating, Corn (corn (Zea mays); [18]) | Plant response rating, Wheat [7, 18] | Plant response rating, Foxtail, Giant [8, 22] | Plant response rating, Kochia (kochia (Kochia scoparia); [22]) | Plant response rating, Kochia (kochia (Kochia scoparia); [23]) | Plant response rating, Barnyardgrass [9] | Plant response rating, Rice (rice (Oryza sativa)) | Plant response rating, Sedge, Umbrella [10]

Cc1nn(C)c(=O)c(-c2c([N+](=O)[O-])ccc3ccccc23)c1OC(=O)C1CC1 [Compound 167]
20: Plant response rating, Blackgrass [1, 18] | Plant response rating, Barnyardgrass [3, 20] | Plant response rating, Barnyardgrass [3, 21] | Plant response rating, Barnyardgrass [3, 23] | Plant response rating, Corn (corn (Zea mays); [19]) | Plant response rating, Foxtail, Giant [8, 20] | Plant response rating, Foxtail, Giant [8, 23]
80: Plant response rating, Pigweed [4, 21] | Plant response rating, Ragweed [5, 23] | Plant response rating, Ryegrass, Italian [6, 21] | Plant response rating, Ryegrass, Italian [6, 22]
70: Plant response rating, Galium [2, 18] | Plant response rating, Pigweed [4, 20] | Plant response rating, Ragweed [5, 21] | Plant response rating, Ragweed [5, 22] | Plant response rating, Ryegrass, Italian [6, 20] | Plant response rating, Kochia (kochia (Kochia scoparia); [21])
100: Plant response rating, Pigweed [4, 22] | Plant response rating, Pigweed [4, 23] | Plant response rating, Ryegrass, Italian [6, 23] | Plant response rating, Kochia (kochia (Kochia scoparia); [23])
40: Plant response rating, Blackgrass [1, 19] | Plant response rating, Foxtail, Giant [8, 21]
50: Plant response rating, Kochia (kochia (Kochia scoparia); [20])
90: Plant response rating, Galium [2, 19]
10: Plant response rating, Barnyardgrass [3, 22] | Plant response rating, Foxtail, Giant [8, 22]
0: Plant response rating, Corn (corn (Zea mays); [18]) | Plant response rating, Wheat [7, 18] | Plant response rating, Wheat [7, 19] | Plant response rating, Barnyardgrass [9] | Plant response rating, Rice (rice (Oryza sativa)) | Plant response rating, Sedge, Umbrella [10] | Plant response rating, Ducksalad [11]
60: Plant response rating, Ragweed [5, 20] | Plant response rating, Kochia (kochia (Kochia scoparia); [22])
